Activity calls are given as the source filed them.
Columns and labels:
[1] = viability loss in Vero cells – cytotoxicity control for Vif-APOBEC3G degradation inhibitor project, dose response (AID 1117358); format: functional; details: Vero
[2] = HIV-1 Vif–A3G interaction blockers – biochemical, TR-FRET, GST-Vif 1-94, biotin-A3G peptide, dose response retest, primary screen (AID 1117319); format: functional;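 further: TR-FRET signal of purified GST-Vif binding a biotinylated A3G peptide; inhibitors lower the FRET signal by blocking Vif and A3G binding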
[3] = molecular target: Mitogen-activated protein kinase 10 (Homo sapiens, UniProt P53779); test: Dose response biochemical screening assay for inhibitors of c-Jun N-Terminal Kinase 3 (JNK3). [Related pubchem assays: 746 ]
[4] = viability loss in HepG2 hepatoma cells – cell-based, ATP luminescence, cherry-pick, activator set 2, cytotoxicity control, dose response (AID 1053143); format: functional
[5] = cytotoxicity toward Colo320 cells – cell-based, CellTiter-Glo luminescence, IC50, dose response (AID 1117334); format: functional; details: COLO 320
[6] = Trypanosoma cruzi growth suppression in host cells – NIH3T3 host cells, beta-gal luminescence, confirmation (AID 2044); format: functional, cell-based;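 further: intracellular parasites grown in NIH/3T3 mouse fibroblasts as host cells; luminescent beta-galactosidase reporter signal from transgenic T. cruzi replicating inside host cells; inhibitors lower the luminescence signal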
[7] = CellTiter-Glo luminescence survival assay, SW480 colon tumor line, concentration-response curve, half-maximal inhibitory concentration (AID 1117338); format: functional
[8] = Counterscreen for activators of the function of SWI/SNF related, matrix associated, actin dependent regulator of chromatin, subfamily a, member 2 (SMARCA2, BRM): Luminescence-based cell-based high throughput dose response assay to identify non-selective compounds using the VP16 reporter assay.; format: functional
[9] = cytotoxicity toward HCT116 cells – cell-based, CellTiter-Glo luminescence, IC50, dose response (AID 1117332); format: functional; details: HCT-116
[10] = NIH3T3 cell viability loss – ATP luminescence, mouse fibroblasts, counter-screen, dose response (AID 2010); format: functional, cell-based;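 further: cells exposed to compound for about 90 hours before reading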
[11] = molecular target: SWI/SNF-related matrix-associated actin-dependent regulator of chromatin subfamily A member 2 (Homo sapiens, UniProt P51531); test: Luminescence-based cell-based high throughput dose response assay to identify activators of the function of SWI/SNF related, matrix associated, actin dependent regulator of chromatin, subfamily a, member 2 (SMARCA2, BRM).; format: functional
[12] = molecular target: T1, DNA repair protein RAD52 homolog (Homo sapiens, UniProt P43351); format: functional, biochemical
T1 sequence (P43351 whole entry): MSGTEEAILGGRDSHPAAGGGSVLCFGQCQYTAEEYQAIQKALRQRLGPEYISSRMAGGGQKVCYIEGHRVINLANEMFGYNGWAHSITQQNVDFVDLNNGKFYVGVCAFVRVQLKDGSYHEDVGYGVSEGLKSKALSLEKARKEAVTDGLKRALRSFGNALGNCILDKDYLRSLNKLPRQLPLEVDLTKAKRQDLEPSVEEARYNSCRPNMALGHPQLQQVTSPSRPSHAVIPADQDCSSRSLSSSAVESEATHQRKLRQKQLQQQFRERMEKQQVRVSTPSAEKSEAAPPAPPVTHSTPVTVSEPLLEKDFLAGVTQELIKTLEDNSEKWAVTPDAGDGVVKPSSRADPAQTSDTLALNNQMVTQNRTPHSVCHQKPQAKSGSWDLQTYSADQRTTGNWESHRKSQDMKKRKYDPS

[13] = IC50 of insulin release inhibition, rat insulinoma INS-1E line, 5 mM glucose, cell-based (AID 1117331); format: functional
[14] = RKO cell viability reduction, dose response, CellTiter-Glo luminescence (AID 1117322); format: functional
[15] = cells; format: functional, cell-based; details: INS-1E
[16] = Reduced DLD-1 viability, concentration-response, CellTiter-Glo luminescence (AID 1117352); format: functional
[17] = cytotoxicity toward HT-29 cells – cell-based, CellTiter-Glo luminescence, IC50, dose response (AID 1117330); format: functional
[18] = HCT116 cell viability decrease, GSK3B pretreatment – CellTiter-Glo, IC50, dose response (AID 1117339); format: functional; details: HCT-116
[19] = SNU-C1 cell viability reduction, dose response, CellTiter-Glo luminescence (AID 1117323); format: functional, cell-based
[20] = molecular target: ELAV-like protein 1 (Homo sapiens, UniProt Q15717); test: Identify HuR specific inhibitors.; format: functional
[21] = molecular target: T2, Caspase-6 (Homo sapiens, UniProt P55212); test: inhibition of CASP6 peptide cleavage – biochemical, VEID-R110 fluorescence, cherry-pick, dose response (AID 720632)
T2 sequence (P55212 whole entry): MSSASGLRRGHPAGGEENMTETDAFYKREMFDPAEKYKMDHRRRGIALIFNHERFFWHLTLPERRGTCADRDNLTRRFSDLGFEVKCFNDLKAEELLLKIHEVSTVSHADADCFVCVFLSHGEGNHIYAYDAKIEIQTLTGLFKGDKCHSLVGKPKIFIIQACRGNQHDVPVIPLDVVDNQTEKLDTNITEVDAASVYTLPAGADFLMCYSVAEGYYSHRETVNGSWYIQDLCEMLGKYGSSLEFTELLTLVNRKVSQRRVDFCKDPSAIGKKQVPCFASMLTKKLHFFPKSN

[22] = molecular target: Protein Tat (Human immunodeficiency virus type 1 group M subtype B (isolate HXB2)(HIV-1), UniProt P04608); format: functional;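 further: tat binding to TAR RNA read out by fluorescence polarization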
[23] = molecular target: T3, Rac GTPase-activating protein 1 (Homo sapiens, UniProt Q9H0H5); test: blockers of MgcRacGAP-driven Rac1 GTP hydrolysis – biochemical, ADP Hunter fluorescence, primary and confirmatory, confirmation (AID 624330); format: functional
T3 sequence (Q9H0H5 whole entry): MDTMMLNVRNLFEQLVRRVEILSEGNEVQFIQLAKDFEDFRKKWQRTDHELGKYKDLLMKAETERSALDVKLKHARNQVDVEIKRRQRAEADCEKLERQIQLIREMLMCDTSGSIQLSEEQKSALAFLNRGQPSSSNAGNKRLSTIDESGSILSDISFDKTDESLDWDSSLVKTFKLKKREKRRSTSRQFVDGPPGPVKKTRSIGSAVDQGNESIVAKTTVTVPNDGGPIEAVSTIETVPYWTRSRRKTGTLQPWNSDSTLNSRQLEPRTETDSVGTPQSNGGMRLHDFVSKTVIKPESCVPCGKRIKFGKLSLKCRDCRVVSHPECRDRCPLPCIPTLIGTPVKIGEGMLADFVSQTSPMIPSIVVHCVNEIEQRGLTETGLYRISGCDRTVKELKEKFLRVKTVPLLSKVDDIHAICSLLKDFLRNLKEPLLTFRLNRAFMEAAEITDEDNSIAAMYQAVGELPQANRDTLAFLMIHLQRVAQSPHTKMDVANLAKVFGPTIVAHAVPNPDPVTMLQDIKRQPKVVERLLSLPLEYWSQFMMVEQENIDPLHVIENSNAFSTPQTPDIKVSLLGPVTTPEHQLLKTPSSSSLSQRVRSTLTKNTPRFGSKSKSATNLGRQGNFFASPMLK

[24] = growth inhibition of PfATP4-mutant resistant parasites – NITD609-resistant line, SYBR Green, dry powder, dose response (AID 1159571); format: functional, cell-based;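 further: parasites synchronized at ring stage by sorbitol before testing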
[25] = toxicity to human hepatoma HepG2 cells – cell-based, cherry-picked samples, cytotoxicity control, dose response (AID 1159577); format: functional
[26] = toxicity to human HepG2 hepatoma cells – cell-based, plate reader, dry powder samples, cytotoxicity control, dose response (AID 1159569); format: functional;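 further: inhibitor potency with signal falling toward the positive control level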
[27] = Dd2 malaria parasite growth inhibition potency – SYBR Green, dry powder samples, dose response (AID 1159566); format: functional, cell-based;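 further: potency for growth inhibition with lower SYBR green DNA signal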
[28] = growth inhibition of yeast DHODH-expressing 3D7 parasites – SYBR Green, dry powder samples, dose response (AID 1159570); format: functional, cell-based;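 further: parasite growth measured after 72 hours of compound exposure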
[29] = P. falciparum Dd2 growth inhibitors, dose response, SYBR Green, cherry-picked samples (AID 1159567); format: functional, cell-based
[30] = molecular target: T4, Low molecular weight phosphotyrosine protein phosphatase (Homo sapiens, UniProt P24666); test: inhibition of LMPTP-A enzymatic activity – biochemical, OMFP substrate, fluorescence intensity, set 2, dose response (AID 743307); format: functional
T4 sequence (P24666 whole entry): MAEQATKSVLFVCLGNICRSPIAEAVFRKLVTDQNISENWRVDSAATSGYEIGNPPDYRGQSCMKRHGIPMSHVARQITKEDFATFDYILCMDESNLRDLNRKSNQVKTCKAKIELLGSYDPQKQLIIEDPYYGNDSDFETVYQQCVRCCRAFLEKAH

[31] = molecular target: T4, Low molecular weight phosphotyrosine protein phosphatase; test: inhibition of human LMPTP enzyme activity – biochemical, absorbance, pNPP substrate, LMPTP-A isoform, set 2, orthogonal assay, dose response (AID 743308); format: functional
[32] = viability loss in HepG2 liver cells – cell-based, luminescence, dry powder, set 9, cytotoxicity control, dose response (AID 743358); format: functional
[33] = glucagon-like peptide-1 release potency in STC-1, concentration-response, half-maximal inhibitory concentration in the STC-1 line (AID 1117345); format: functional, cell-based
[34] = Potency on glucagon-like peptide 1 release, dose-response in NCI-H716 cell line, half maximal inhibitory concentration (AID 1117344); format: functional, cell-based

Chain of ELAV-like protein 1 (Q15717 whole entry): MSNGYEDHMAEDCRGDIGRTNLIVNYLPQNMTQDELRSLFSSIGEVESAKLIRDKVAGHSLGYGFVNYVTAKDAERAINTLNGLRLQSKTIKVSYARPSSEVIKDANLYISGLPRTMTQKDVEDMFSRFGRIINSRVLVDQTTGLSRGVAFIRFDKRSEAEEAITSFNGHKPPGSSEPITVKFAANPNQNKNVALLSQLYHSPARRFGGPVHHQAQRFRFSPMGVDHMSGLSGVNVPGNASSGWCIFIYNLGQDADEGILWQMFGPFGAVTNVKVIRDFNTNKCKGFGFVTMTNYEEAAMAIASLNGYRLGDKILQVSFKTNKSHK
Chain of Protein Tat (P04608 whole entry): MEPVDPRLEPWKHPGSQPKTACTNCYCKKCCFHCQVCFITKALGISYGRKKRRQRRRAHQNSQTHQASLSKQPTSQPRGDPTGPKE
Chain of SWI/SNF-related matrix-associated actin-dependent regulator of chromatin subfamily A member 2 (P51531 whole entry): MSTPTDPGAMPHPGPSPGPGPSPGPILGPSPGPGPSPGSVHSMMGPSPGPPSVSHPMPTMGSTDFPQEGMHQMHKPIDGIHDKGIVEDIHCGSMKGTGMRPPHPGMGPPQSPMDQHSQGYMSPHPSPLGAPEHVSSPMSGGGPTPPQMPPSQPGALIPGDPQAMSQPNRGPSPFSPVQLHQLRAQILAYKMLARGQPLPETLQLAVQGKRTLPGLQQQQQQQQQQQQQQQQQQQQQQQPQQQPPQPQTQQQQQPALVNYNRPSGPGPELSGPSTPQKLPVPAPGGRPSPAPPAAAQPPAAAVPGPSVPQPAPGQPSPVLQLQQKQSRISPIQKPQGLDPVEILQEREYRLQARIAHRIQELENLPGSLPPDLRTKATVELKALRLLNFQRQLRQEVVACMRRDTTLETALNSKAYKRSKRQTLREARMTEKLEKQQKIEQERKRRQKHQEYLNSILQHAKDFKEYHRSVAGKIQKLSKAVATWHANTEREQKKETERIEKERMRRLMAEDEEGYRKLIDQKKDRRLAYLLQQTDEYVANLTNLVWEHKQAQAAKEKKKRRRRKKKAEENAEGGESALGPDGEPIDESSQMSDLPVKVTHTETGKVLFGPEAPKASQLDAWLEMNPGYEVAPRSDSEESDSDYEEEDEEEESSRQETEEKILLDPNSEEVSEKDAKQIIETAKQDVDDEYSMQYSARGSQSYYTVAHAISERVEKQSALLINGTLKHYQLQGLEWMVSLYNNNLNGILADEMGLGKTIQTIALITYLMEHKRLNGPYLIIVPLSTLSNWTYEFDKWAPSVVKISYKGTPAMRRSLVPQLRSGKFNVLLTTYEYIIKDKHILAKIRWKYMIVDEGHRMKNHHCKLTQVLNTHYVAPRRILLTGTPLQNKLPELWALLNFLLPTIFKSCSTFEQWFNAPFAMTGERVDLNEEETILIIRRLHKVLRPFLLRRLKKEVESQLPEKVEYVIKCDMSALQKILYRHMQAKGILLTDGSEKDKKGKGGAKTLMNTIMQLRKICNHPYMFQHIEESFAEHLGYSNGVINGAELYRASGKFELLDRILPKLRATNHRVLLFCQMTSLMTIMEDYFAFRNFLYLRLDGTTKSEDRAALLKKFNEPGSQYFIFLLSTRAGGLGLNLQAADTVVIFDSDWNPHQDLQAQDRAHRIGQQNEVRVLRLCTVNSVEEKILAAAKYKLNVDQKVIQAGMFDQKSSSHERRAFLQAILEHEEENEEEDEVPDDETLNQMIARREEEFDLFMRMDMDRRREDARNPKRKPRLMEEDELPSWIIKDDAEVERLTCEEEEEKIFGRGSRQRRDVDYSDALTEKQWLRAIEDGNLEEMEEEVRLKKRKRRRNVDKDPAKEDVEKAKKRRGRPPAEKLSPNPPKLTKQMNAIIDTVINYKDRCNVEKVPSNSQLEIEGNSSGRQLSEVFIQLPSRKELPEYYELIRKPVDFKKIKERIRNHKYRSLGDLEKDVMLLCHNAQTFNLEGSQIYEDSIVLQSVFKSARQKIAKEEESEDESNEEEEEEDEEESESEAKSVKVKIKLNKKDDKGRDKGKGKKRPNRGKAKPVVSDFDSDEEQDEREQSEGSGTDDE
Chain of Mitogen-activated protein kinase 10 (P53779 whole entry): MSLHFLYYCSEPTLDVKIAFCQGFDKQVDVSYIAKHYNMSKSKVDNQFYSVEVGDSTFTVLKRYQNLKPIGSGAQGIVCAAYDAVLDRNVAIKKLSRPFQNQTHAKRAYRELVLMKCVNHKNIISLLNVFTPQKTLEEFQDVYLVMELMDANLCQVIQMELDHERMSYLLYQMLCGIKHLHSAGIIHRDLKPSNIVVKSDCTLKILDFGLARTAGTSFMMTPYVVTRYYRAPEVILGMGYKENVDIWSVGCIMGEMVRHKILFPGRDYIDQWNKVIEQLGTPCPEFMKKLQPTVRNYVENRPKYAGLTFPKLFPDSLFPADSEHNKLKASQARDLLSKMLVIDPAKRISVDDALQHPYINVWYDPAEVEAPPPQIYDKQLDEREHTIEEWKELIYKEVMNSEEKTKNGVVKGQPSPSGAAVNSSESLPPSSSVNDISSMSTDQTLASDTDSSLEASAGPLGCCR

CCOC(=O)c1c(NC(=O)C(C)N2CCN(C(=O)c3ccco3)CC2)sc2c1CCCC2 (configuration not stated)
CC50 [1]: 21.6 µM (active) | IC50 [2]: > 100 µM (active)

O=C1C(c2ccncc2)=C(O)c2ccccc21
IC50 [3]: 6.69 µM (active)

Nc1c2ccccc2nc2ccccc12
AC50 [4]: 6.26 µM (active) | IC50 [5]: 8.81 µM (inactive) | EC50 [6]: 1.16 µM (active) | IC50 [7]: > 20 µM (inactive) | EC50 [8]: > 91.1 µM (inactive) | IC50 [9]: 2.02 µM (active) | EC50 [10]: 10.6 µM (active) | EC50 [11]: > 3.37 µM (active) | AC50 [12]: 2.48 µM (active) | IC50 [13]: 18.5 µM (inactive) | IC50 [14]: > 6.67 µM (inactive) | IC50 [15]: > 33.3 µM (inactive) | IC50 [16]: > 20 µM (inactive) | IC50 [17]: > 20 µM (inactive) | IC50 [18]: 3.87 µM (active) | IC50 [19]: > 6.67 µM (inactive)

Cc1ccc(Nc2ccc(N)cc2S(=O)(=O)O)cc1
IC50 [20]: 41 µM (active) | AC50 [21]: 13.7 µM (active) | IC50 [22]: 49.3 µM (inconclusive) | IC50 [23]: 40.2 µM (active)

Cc1ccc(-c2ccc([C@@H]3[C@H](CO)N4CCCCN(S(=O)(=O)c5cccc(C)c5)C[C@@H]34)cc2)cc1
AC50 [24]: 0.87 µM (active) | AC50 [25]: > 39 µM (inactive) | AC50 [26]: 16.4 µM (active) | AC50 [27]: 0.955 µM (active) | AC50 [28]: 1.15 µM (active) | AC50 [29]: 1.49 µM (active)

c1ccc(-c2cc(NCCN3CCCC3)c3ccccc3n2)cc1
IC50 [30]: 5.46 µM (active) | IC50 [31]: 11.9 µM (active)

COc1cccc(NC(=O)N2CC[C@@H]3[C@@H](CO)N(C)c4ccc(-c5cccc(F)c5)cc4[C@@H]32)c1
AC50 [32]: > 52 µM (inactive)

CCCCC(CC)COC(=O)CC(C(=O)OCC(CC)CCCC)S(=O)(=O)O (configuration not stated) [DOCUSATE]
IC50 [5]: > 20 µM (inactive) | IC50 [7]: > 20 µM (inactive) | IC50 [9]: > 20 µM (inactive) | IC50 [33]: > 40 µM (inactive) | IC50 [34]: 22.9 µM (inactive) | IC50 [14]: > 20 µM (inactive) | IC50 [16]: > 20 µM (inactive) | IC50 [17]: > 20 µM (inactive) | IC50 [18]: 16.6 µM (inactive) | IC50 [19]: > 20 µM (inactive)

From ChEMBL document CHEMBL1201862, “PubChem BioAssay data set” (2004)
